Source: ChEMBL document CHEMBL1132533, “Synthesis and evaluation of hydroxyproline-derived isoprenyltransferase inhibitors” (Bioorg Med Chem Lett, 1999)

Tests used:
[1] = target: Protein farnesyltransferase (Bos taurus, UniProt P29702+P49355); test: Inhibitory concentration was evaluated against Farnesyltransferase in the farnesylation of H-ras protein; assay type: protein-complex assay
[2] = target: Geranylgeranyl transferase type I (Bos taurus, UniProt P29702+Q5EAD5); test: In vitro inhibitory activity against Geranylgeranyl transferase in the geranylgeranylation of H-ras-CAIL protein; assay type: protein-complex assay
[3] = target: Protein farnesyltransferase (Mus musculus, UniProt Q61239+Q8K2I1); test: Inhibitory concentration against Farnesyltransferase for Farnesylation of H-ras protein InNIH 3T3 cells transformed with activated H-ras; assay type: cell-based, NIH3T3
[4] = In vitro inhibitory activity against Geranylgeranyl transferase in the geranylgeranylation of Rap1A protein protein in NIH 3T3 cells transformed with activated H-ras; assay type: cell-based, Mus musculus; conditions: nih3t3

IC50 [1] [nM] | IC50 [2] [nM] | IC50 [3] [µM] | IC50 [4] [µM] | SMILES
3300 | 11000 | – | – | CSCC[C@@H](NC(=O)[C@H]1C[C@H](Oc2ccccc2)CN1C/C=C/[C@@H](N)CS)C(=O)O
– | – | 5.3 | 21.9 | COC(=O)[C@@H](CCSC)NC(=O)[C@@H]1C[C@H](Oc2ccccc2)CN1C/C=C/[C@@H](N)CS
– | – | > 50 | > 50 | COC(=O)[C@H](CCSC)NC(=O)[C@@H]1C[C@H](Oc2ccc(C(F)(F)F)cc2)CN1C/C=C/[C@@H](N)CS
– | – | 3 | 0.39 | COC(=O)[C@H](CCSC)NC(=O)[C@@H]1C[C@H](Oc2ccc(C(C)C)cc2)CN1C/C=C/[C@@H](N)CS
– | – | 0.35 | > 50 | COC(=O)[C@H](CCSC)NC(=O)[C@@H]1C[C@H](Oc2ccccc2)CN1CCCC[C@@H](N)CS
– | – | 2 | > 50 | COC(=O)[C@H](CCSC)NC(=O)[C@@H]1C[C@H](Oc2ccccc2)CN1C(=O)CCC[C@@H](N)CS
110 | 110 | – | – | CSCC[C@H](NC(=O)[C@@H]1C[C@H](Oc2ccc(C(F)(F)F)cc2)CN1C/C=C/[C@@H](N)CS)C(=O)O
20 | 3300 | – | – | CSCC[C@H](NC(=O)[C@@H]1C[C@H](Oc2ccccc2)CN1CCCC[C@@H](N)CS)C(=O)O
– | – | 0.04 | > 25 | COC(=O)[C@H](CCSC)NC(=O)[C@@H]1C[C@H](Oc2ccccc2)CN1C[C@H](/C=C/[C@@H](N)CS)C(C)C
– | – | > 50 | > 50 | COC(=O)[C@H](CCSC)NC(=O)[C@@H]1C[C@H](Oc2ccc(OC)c(OC)c2)CN1C/C=C/[C@@H](N)CS
– | – | 3.2 | 3.1 | CCCCc1ccc(O[C@H]2C[C@@H](C(=O)N[C@@H](CCSC)C(=O)OC)N(C/C=C/[C@@H](N)CS)C2)cc1
18 | 11 | – | – | CSCC[C@H](NC(=O)[C@@H]1C[C@H](Oc2ccccc2)CN1C(=O)[C@H](/C=C/[C@@H](N)CS)C(C)C)C(=O)O
210 | 170 | – | – | CCCc1ccccc1O[C@H]1C[C@@H](C(=O)N[C@@H](CCSC)C(=O)O)N(C/C=C/[C@@H](N)CS)C1
– | – | 0.84 | > 50 | COC(=O)[C@H](CCSC)NC(=O)[C@@H]1C[C@H](Oc2ccccc2)CN1C(=O)[C@H](/C=C/[C@@H](N)CS)C(C)C
20 | 570 | – | – | CSCC[C@H](NC(=O)[C@@H]1C[C@H](Oc2ccccc2)CN1CC/C=C/[C@@H](N)CS)C(=O)O
87 | 180 | – | – | CCCCc1ccc(O[C@H]2C[C@@H](C(=O)N[C@@H](CCSC)C(=O)O)N(C/C=C/[C@@H](N)CS)C2)cc1
– | – | > 10 | > 10 | CCCc1ccccc1O[C@H]1C[C@H](C(=O)N[C@H](CCSC)C(=O)OC)N(C/C=C/[C@@H](N)CS)C1

IC50 [1] [nM] | IC50 [2] [nM] | IC50 [3] [µM] | IC50 [4] [µM] | SMILES
– | – | 22.5 | > 50 | COC(=O)[C@H](CCSC)NC(=O)[C@@H]1C[C@H](Oc2cccc3ccccc23)CN1C/C=C/C(N)CS (some centres not stated)
– | – | > 10 | 3.1 | COC(=O)[C@H](CCSC)NC(=O)[C@@H]1C[C@H](Oc2cccc3c2CCCC3)CN1C/C=C/C(N)CS (some centres not stated)
100 | 200 | – | – | CSCC[C@H](NC(=O)[C@@H]1C[C@H](Oc2cccc3ccccc23)CN1C/C=C/C(N)CS)C(=O)O (some centres not stated)
– | – | > 50 | – | COC(=O)[C@H](CCSC)NC(=O)[C@H]1C[C@H](Oc2ccccc2)CN1C/C=C/[C@@H](N)CS
– | – | > 50 | > 50 | COC(=O)[C@H](CCSC)NC(=O)[C@@H]1C[C@@H](Oc2ccccc2)CN1C/C=C/[C@@H](N)CS
35 | 250 | – | – | CSCC[C@H](NC(=O)[C@@H]1C[C@H](Oc2ccc(-c3ccccc3)cc2)CN1C/C=C/[C@@H](N)CS)C(=O)O
– | – | 0.49 | > 50 | COC(=O)[C@H](CCSC)NC(=O)[C@@H]1C[C@H](Oc2ccccc2)CN1CC/C=C/[C@@H](N)CS
26 | 1 | 0.37 | > 100 | CSCC[C@H](NC(=O)[C@H](/C=C\[C@@H](/C=C/[C@@H](N)CS)C(C)C)Cc1ccccc1)C(=O)O
47 | 89 | – | – | CSCC[C@H](NC(=O)[C@@H]1C[C@H](Oc2cccc3c2CCCC3)CN1C/C=C/[C@@H](N)CS)C(=O)O
4000 | 8000 | – | – | CSCC[C@H](NC(=O)[C@@H]1C[C@@H](Oc2ccccc2)CN1C/C=C/[C@@H](N)CS)C(=O)O
2 | 100 | – | – | CSCC[C@H](NC(=O)[C@@H]1C[C@H](Oc2ccccc2)CN1C(=O)CCC[C@@H](N)CS)C(=O)O
– | – | 3.3 | 3.2 | COC(=O)[C@H](CCSC)NC(=O)[C@@H]1C[C@H](Oc2ccc(-c3ccccc3)cc2)CN1C/C=C/[C@@H](N)CS
82 | 210 | – | – | CSCC[C@H](NC(=O)[C@@H]1C[C@H](Oc2ccc(C(C)C)cc2)CN1C/C=C/[C@@H](N)CS)C(=O)O
17 | 150 | – | – | CSCC[C@H](NC(=O)[C@@H]1C[C@H](Oc2ccccc2)CN1C[C@H](/C=C/[C@@H](N)CS)C(C)C)C(=O)O
57 | 53 | – | – | CSCCC(NC(=O)[C@@H]1C[C@H](Oc2ccccc2)CN1C/C=C/[C@@H](N)CS)C(=O)O (single isomer, unassigned)
450 | 67000 | – | – | COc1ccc(O[C@H]2CC(C(=O)NC(CCSC)C(=O)O)N(C/C=C/[C@@H](N)CS)C2)cc1OC (single isomer, unassigned)
